Source: US20240381872A1, “SUBSTITUTED 2,3-DIHYDRO[1,3]THIAZOLO[4,5-B]PYRIDINES, SALTS THEREOF AND THEIR USE AS HERBICIDALLY ACTIVE SUBSTANCES” (BAYER AKTIENGESELLSCHAFT, priority 2021, published 2024)

How the values were obtained:
Type in all cases: in vivo
Stellaria media (STEME) [1] = assay: Herbicidal post-emergence action, section B (Table B9); conditions: Stellaria media, post-emergence, 504 h; application rate 1280 g/ha; visual rating about 3 weeks after treatment vs untreated controls; read-out: post-emergence activity against STEME in %
In short: (§1)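 Under optimum greenhouse conditions, sandy-loam-grown weeds at the one-leaf stage are sprayed with aqueous suspension or emulsion carrying 0.5% additive, 600 liters per hectare. About 3 weeks later, visual percent activity is scored relative to untreated controls.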

Stellaria media (STEME) [2] = assay: Herbicidal pre-emergence action, section A (Table A9); conditions: Stellaria media, 504 h, application rate 320 g/ha, read-out: pre-emergence activity against STEME in %
In short: (§2)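 Read-out is visual herbicidal effect in percent (100% = plants died, 0% = as control), graded ca. 3 weeks after treatment. Test compounds as WP or EC were applied to covering soil over sown seeds with 0.5% additive, 600 l water per hectare; greenhouse growth.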

Kochia scoparia (KCHSC) [3] = assay: Herbicidal post-emergence action, section B (Table B4); conditions: Bassia scoparia, post-emergence, 504 h; application rate 1280 g/ha; visual rating about 3 weeks after treatment vs untreated controls; read-out: post-emergence activity against KCHSC in %
In short: as §1

[4] = system: Amaranthus retroflexus (AMARE); assay: Herbicidal pre-emergence action, section A (Table A11); conditions: Amaranthus retroflexus, 504 h, read-out: pre-emergence activity against AMARE in %
In short: as §2

[5] = system: Matricaria inodora (MATIN); assay: Herbicidal pre-emergence action, section A (Table A6); conditions: Tripleurospermum inodorum, pre-emergence, 504 h; application rate 1280 g/ha; visual grading after ca. 3 weeks vs untreated controls; read-out: pre-emergence activity against MATIN in %
In short: as §2

Poa annua (POAAN) [6] = assay: Herbicidal post-emergence action, section B (Table B7); conditions: Poa annua, post-emergence, 504 h, visual rating about 3 weeks after treatment vs untreated controls, read-out: post-emergence activity against POAAN in %
In short: as §1

Lolium rigidum (LOLRI) [7] = assay: Herbicidal post-emergence action, section B (Table B5); conditions: Lolium rigidum, post-emergence, 504 h; application rate 1280 g/ha; visual rating about 3 weeks after treatment vs untreated controls; read-out: post-emergence activity against LOLRI in %
Protocol: (§3) Seeds of mono- and dicotyledonous weed plants were placed in plastic pots in sandy loam soil (doubly sown with in each case one species of mono- or dicotyledonous weed plants per pot), covered with soil and cultivated in a greenhouse under controlled growth conditions. 2 to 3 weeks after sowing, the test plants were treated at the one-leaf stage. The compounds of the invention, formulated in the form of wettable powders (WP) or as emulsion concentrates (EC), were applied onto the green parts of the plants as aqueous suspension or emulsion with addition of 0.5% additive at a water application rate of 600 liters per hectare (converted). After the test plants had been kept in the greenhouse under optimum growth conditions for about 3 weeks, the activity of the preparations was rated visually in comparison to untreated controls. For example, 100% activity=the plants have died, 0% activity=like control plants.

Lolium rigidum (LOLRI) [8] = assay: Herbicidal pre-emergence action, section A (Table A5); conditions: Lolium rigidum, pre-emergence, 504 h, visual grading after ca. 3 weeks vs untreated controls, read-out: pre-emergence activity against LOLRI in %
In short: as §2

[9] = system: Echinochloa crus-galli (ECHCG); assay: Herbicidal pre-emergence action, section A (Table A3); conditions: Echinochloa crus-galli, pre-emergence, 504 h, visual grading after ca. 3 weeks vs untreated controls, read-out: pre-emergence activity against ECHCG in %
In short: as §2

Setaria viridis (SETVI) [10] = assay: Herbicidal pre-emergence action, section A (Table A8); conditions: Setaria viridis, 504 h, read-out: pre-emergence activity against SETVI in %
In short: as §2

Kochia scoparia (KCHSC) [11] = assay: Herbicidal pre-emergence action, section A (Table A4); conditions: Bassia scoparia, pre-emergence, 504 h, visual grading after ca. 3 weeks vs untreated controls, read-out: pre-emergence activity against KCHSC in %
In short: as §2

[12] = system: Digitaria sanguinalis (DIGSA); assay: Herbicidal pre-emergence action, section A (Table A12); conditions: Digitaria sanguinalis, 504 h, application rate 1280 g/ha, read-out: pre-emergence activity against DIGSA in %
In short: as §2

[13] = system: Echinochloa crus-galli (ECHCG); assay: Herbicidal post-emergence action, section B (Table B3); conditions: Echinochloa crus-galli, 504 h, rated visually after about 3 weeks, read-out: post-emergence activity against ECHCG in %
Protocol: as §3

Veronica persica (VERPE) [14] = assay: Herbicidal post-emergence action, section B (Table B10); conditions: Veronica persica, post-emergence, 504 h, visual rating about 3 weeks after treatment vs untreated controls, read-out: post-emergence activity against VERPE in %
In short: as §1

Veronica persica (VERPE) [15] = assay: Herbicidal pre-emergence action, section A (Table A10); conditions: Veronica persica, 504 h, application rate 320 g/ha, read-out: pre-emergence activity against VERPE in %
In short: as §2

Poa annua (POAAN) [16] = assay: Herbicidal pre-emergence action, section A (Table A7); conditions: Poa annua, pre-emergence, 504 h, visual grading after ca. 3 weeks vs untreated controls, read-out: pre-emergence activity against POAAN in %
In short: as §2

Setaria viridis (SETVI) [17] = assay: Herbicidal post-emergence action, section B (Table B8); conditions: Setaria viridis, post-emergence, 504 h; application rate 320 g/ha; visual rating about 3 weeks after treatment vs untreated controls; read-out: post-emergence activity against SETVI in %
Protocol: as §3

[18] = system: Amaranthus retroflexus (AMARE); assay: Herbicidal post-emergence action, section B (Table B11); conditions: Amaranthus retroflexus, post-emergence, 504 h; application rate 320 g/ha; visual rating about 3 weeks after treatment vs untreated controls; read-out: post-emergence activity against AMARE in %
In short: as §1

[19] = system: Abutilon theophrasti (ABUTH); assay: Herbicidal post-emergence action, section B (Table B1); conditions: Abutilon theophrasti, 504 h, application rate 1280 g/ha, rated visually after about 3 weeks, read-out: post-emergence activity against ABUTH in %
Protocol: as §3

[20] = system: Digitaria sanguinalis (DIGSA); assay: Herbicidal post-emergence action, section B (Table B12); conditions: Digitaria sanguinalis, post-emergence, 504 h; application rate 1280 g/ha; visual rating about 3 weeks after treatment vs untreated controls; read-out: post-emergence activity against DIGSA in %
Protocol: as §3

## Cc1cscc1-c1nc2c(cc1C)[S+]([O-])CN2 (centres unmarked) [Example I-023]
Stellaria media (STEME) [1]
  pest or weed control at 1280 g/ha: 90%
Stellaria media (STEME) [2]
  pest or weed control at 320 g/ha: 90%
Kochia scoparia (KCHSC) [3]
  pest or weed control at 1280 g/ha: 90%
[4]; application rate 1280 g/ha
  pest or weed control at 1280 g/ha: 90%
[5]
  pest or weed control at 1280 g/ha: 90%
Poa annua (POAAN) [6]; application rate 320 g/ha
  pest or weed control at 320 g/ha: 90%
Lolium rigidum (LOLRI) [7]
  pest or weed control at 1280 g/ha: 90%
Lolium rigidum (LOLRI) [8]; application rate 1280 g/ha
  pest or weed control at 1280 g/ha: 100%
[9]; application rate 1280 g/ha
  pest or weed control at 1280 g/ha: 100%
Setaria viridis (SETVI) [10]; application rate 1280 g/ha
  pest or weed control at 1280 g/ha: 100%
Kochia scoparia (KCHSC) [11]; application rate 1280 g/ha
  pest or weed control at 1280 g/ha: 90%
[12]
  pest or weed control at 1280 g/ha: 100%
[13]; application rate 1280 g/ha
  pest or weed control at 1280 g/ha: 90%
Veronica persica (VERPE) [14]; application rate 1280 g/ha
  pest or weed control at 1280 g/ha: 90%
Veronica persica (VERPE) [15]
  pest or weed control at 320 g/ha: 90%
Poa annua (POAAN) [16]; application rate 1280 g/ha
  pest or weed control at 1280 g/ha: 100%

## Cc1cc2c(nc1-c1ccccc1Cl)N(S(C)(=O)=O)CS2 [Example I-142, 5-(2-chlorophenyl)-6-methyl-3-(methylsulfonyl)-2,3-dihydro[1,3]thiazolo[4,5-b]pyridine]
Stellaria media (STEME) [1]
  pest or weed control at 1280 g/ha: 90%
Stellaria media (STEME) [2]
  pest or weed control at 320 g/ha: 90%
[4]; application rate 320 g/ha
  pest or weed control at 320 g/ha: 90%
[5]
  pest or weed control at 1280 g/ha: 90%
Poa annua (POAAN) [6]; application rate 1280 g/ha
  pest or weed control at 1280 g/ha: 90%
Lolium rigidum (LOLRI) [7]
  pest or weed control at 1280 g/ha: 90%
Setaria viridis (SETVI) [17]
  pest or weed control at 320 g/ha: 90%
[18]
  pest or weed control at 320 g/ha: 90%
Lolium rigidum (LOLRI) [8]; application rate 320 g/ha
  pest or weed control at 320 g/ha: 100%
[19]
  pest or weed control at 1280 g/ha: 90%
[9]; application rate 320 g/ha
  pest or weed control at 320 g/ha: 100%
Setaria viridis (SETVI) [10]; application rate 320 g/ha
  pest or weed control at 320 g/ha: 100%
Kochia scoparia (KCHSC) [11]; application rate 320 g/ha
  pest or weed control at 320 g/ha: 90%
[12]
  pest or weed control at 1280 g/ha: 100%
[13]; application rate 320 g/ha
  pest or weed control at 320 g/ha: 90%
Veronica persica (VERPE) [14]; application rate 320 g/ha
  pest or weed control at 320 g/ha: 90%
Veronica persica (VERPE) [15]
  pest or weed control at 320 g/ha: 90%
[20]
  pest or weed control at 1280 g/ha: 90%
Poa annua (POAAN) [16]; application rate 320 g/ha
  pest or weed control at 320 g/ha: 100%
